Experimental findings from article PMC6624297 (Cell Death & Disease, 2019) are described below.

One data set relates to A549 tumor xenograft. The data set can be described thus: A549 tumor xenograft model. It counts as in vivo, BABL/c female nude mice. The conditions noted are these: 80 mg/kg, 3 weeks. On the procedure: Five-week-old immunodeficient BABL/c female nude mice, weighing 18 to 20 g, were purchased and maintained under specific pathogen-free conditions. They were implanted subcutaneously with 1 × 10^7 A549 cells. Tumor sizes were assessed using the two largest perpendicular axes. Tumor volume was calculated using the formula V = (a × b^2)/2, where a is length and b is width. The tumor volume was measured every 3 days. When tumor volumes reached 50 mm^3, the mice were randomized to drug-treated or vehicle groups (five mice per group). Tumor growth was monitored every 3 days using a Vernier caliper. […] All animal studies were conducted with the approval of the Laboratory Animal Welfare and Ethical Committee of China Medical University.
After incubation with hydrogen peroxide, the slides were washed with PBS and then incubated with 0.4% Triton X-100. The sections were incubated with blocking solution (Dako Protein Block, Dako, Glostrup, Denmark) for 30 min at room temperature after washing with PBS. The sections were further incubated with primary antibodies (Ki67 and cleaved caspase 3 [all from Cell Signaling Technology], diluted at 1:200) overnight at 4 °C, washed with PBS several times, incubated with the corresponding biotinylated secondary antibodies (diluted at 1:500), and then washed with PBS multiple times. After adding avidin-biotin complexes (Vector Laboratories), the sections were visualized using diaminobenzidine (DAB) detection reagent (Enzo Life Sciences, Farmingdale, NY, USA) and mounted with a mounting solution (Vector Laboratories, Burlingame, CA, USA).

The subject of the next data set is H460 cells. The data set can be described thus: Cell cycle PI staining FACS, H460. The conditions noted are these: H460, 0.5, 1.0, 1.5 μM, 24 h. Format: cell-based, human. The source says: TS is a crucial enzyme in the DNA synthesis stage. When it is inhibited, first to show cell cycle arrest at G1/S phase. […] Flow cytometry show (Fig. 3), as the concentration of the compound increases, the cells in the G0/G1 phase increase, the cells in the S phase and the G2/M phase decrease. Eventually, the proliferation of cancer cells was inhibited by the G1/S phase arrest of the compound L14e.

Consider `O=C(Nc1cccc(Cl)c1)Nc1ccccc1NS(=O)(=O)c1c[nH]c(=O)[nH]c1=O` [Compound L14e, N'-(3-chlorophenyl)-2-(2,4-dihydroxypyrimidine-5-sulfonamido)phenyl urea], for which, in the data set on A549 tumor xenograft, the “changes in body weight in xenograft mice” value is “negligible changes in body weight”, the “expression of Ki67 in tumors (IHC)” value was “significantly decreased” and the “expression of cleaved-caspase-3 in tumors (IHC)” value is “significantly increased”. Also, in the data set on A549 tumor xenograft (intraperitoneal injection), the “growth of xenograft tumors” value is reported as “significantly suppressed the growth of xenograft tumors” and the “tumor growth inhibition (TGI)” value was found to be 84.86. Besides, the “effect on cell cycle” value with H460 cells was “arrest the cell cycle in the G1/S phase”.
